The results in this text go back to patent publication US20250270203A1, “NICOTINIC ACETYLCHOLINE RECEPTOR LIGANDS” (Philip Morris Products S.A., priority 2022, published 2025).

The Ki is a dissociation constant, usually derived from enzyme kinetics or from competition with a known ligand.

Read-outs that look alike come from different tables or passages of the source.

One assay addresses human α7 nAChR (Homo sapiens (Human), UniProt P36544). As to the kind of experiment: biochemical. The assay is classed as binding. The note with it: for nAChR subtype preference / selectivity: in words, from Ki at α7, α4β2, α3β4.
The next assay concerns the target α4β2 nAChR (Homo sapiens (Human), UniProt P17787+P43681). As to the kind of experiment: nAChR binding affinity, α4β2 subtype.
A further assay has as its target α3β4 nAChR (Homo sapiens (Human), UniProt P30926+P32297). Kind of assay: nAChR binding affinity, α3β4 subtype. The note with it: Table 2.
The test system of assay [1] is citric acid-induced cough in guinea pigs. Kind of assay: Citric acid-induced cough in guinea pigs, dry powder insufflation, nebulisation, oral and intraperitoneal administration (Example 28). The assay is classed as in vivo, guinea pig. As to the method: The mean concentration of citric acid was 1156.0±111.8 μg/L for both routes.
Regarding oral administration, the duration between compound administration and start of citric acid challenge was 30 minutes. The data was compared to atmospheric air (control).
Regarding intraperitoneal administration, compounds were administered approximately 10-15 mins before the cough challenge (citric acid inhalation challenge). Test compounds were dosed at between 1-30 mg/kg (as described herein for each experiment) while the positive control (codeine) was dosed at 30 mg/kg, in each case using a dosing volume of 10 ml/kg, by a single intraperitoneal injection.

Assay [2] shares this test system. Kind of assay: Citric acid-induced cough in guinea pigs, intraperitoneal injection (Example 27).
Procedure: As depicted in FIG. 1B and FIG. 1C, cough induction is conducted by placing guinea pigs into a whole body plethysmograph (WBP) equipped with a Aeroneb™ vibrating mesh nebulizer, and including pressure transducers and detection equipment (EMKA technologies). A primary microphone is supplied (EMKA Technologies) for acoustic confirmation of cough frequency in the form of a digital trace using the EMKA software.
A secondary microphone (T1 True Wireless Earphone, QCY®) also is placed in the chamber and connected to a smartphone via Bluetooth to enable the observers to hear the audible sounds during the test. A bias flow rate of 2 L/min is used to continuously draw either atmospheric air (during the fresh air period) or aerosolized citric acid from the nebulizer into the WBP and expel it out through an exhaust pipe. Chamber pressure in the WBP is set to be between −10 to −30 Pa relative to ambient pressure.
Prior to the citric acid challenge, the guinea pigs are administered (intraperitoneal injection) with vehicle control, positive control or test compound (where applicable) with different dosage (Table 3) and placed individually into the WBP for at least 5 minutes in order to habituate.
The procedure was as follows: Injection→guinea pig in box having citric acid for 10 mins (counting the cough)→box then fill with air for 5 mins (counting the cough)→guinea pig moved to recovery cage.
Appropriate concentration of citric acid is used to generate aerosol and deliver to WBP for 10 minutes with constant recording of pressure measurements. The mean concentration of citric acid was 1283.1±137.2 μg/L. Upon completion of citric acid challenge, the guinea pig is allowed to recover and continue recording of cough counts for another 5 minutes. Subsequently, the guinea pigs are closely monitored in recovery cage for full recovery from the challenge and that no adverse events were present before returning the animals to its home cage. Cough counts (CCnt) are recorded over a period of at least 10 mins, starting from citric acid stimulation and cough incubation period (CIP) are defined as the time it takes to cough for the first time after citric acid stimulation.
The data were analysed using Oneway ANOVA (* p<0.05, ** p<0.01, *** p<0.001, **** p<0.0001) when compared to saline control, and each column represents Mean±SEM.
[3] abbreviates: Table 1, [125I] α-Bungarotoxin, Cheng-Prusoff, read-out: α7 Ki.

Chain of human α7 nAChR (P36544 23-502 limits assumed): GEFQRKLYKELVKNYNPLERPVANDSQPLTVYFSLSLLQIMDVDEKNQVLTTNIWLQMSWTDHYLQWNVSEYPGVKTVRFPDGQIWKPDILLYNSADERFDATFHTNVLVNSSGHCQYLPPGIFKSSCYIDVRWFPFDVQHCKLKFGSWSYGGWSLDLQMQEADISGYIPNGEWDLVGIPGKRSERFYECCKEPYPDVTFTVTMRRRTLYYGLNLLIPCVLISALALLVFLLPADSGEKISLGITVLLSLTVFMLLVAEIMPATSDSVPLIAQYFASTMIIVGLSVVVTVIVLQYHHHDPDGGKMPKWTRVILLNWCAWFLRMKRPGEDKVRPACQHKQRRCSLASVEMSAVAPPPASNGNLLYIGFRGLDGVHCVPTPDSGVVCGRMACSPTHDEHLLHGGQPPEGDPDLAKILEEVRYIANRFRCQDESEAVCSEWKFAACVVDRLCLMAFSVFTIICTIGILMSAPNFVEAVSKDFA
Chain of α3β4 nAChR (P32297 32-505): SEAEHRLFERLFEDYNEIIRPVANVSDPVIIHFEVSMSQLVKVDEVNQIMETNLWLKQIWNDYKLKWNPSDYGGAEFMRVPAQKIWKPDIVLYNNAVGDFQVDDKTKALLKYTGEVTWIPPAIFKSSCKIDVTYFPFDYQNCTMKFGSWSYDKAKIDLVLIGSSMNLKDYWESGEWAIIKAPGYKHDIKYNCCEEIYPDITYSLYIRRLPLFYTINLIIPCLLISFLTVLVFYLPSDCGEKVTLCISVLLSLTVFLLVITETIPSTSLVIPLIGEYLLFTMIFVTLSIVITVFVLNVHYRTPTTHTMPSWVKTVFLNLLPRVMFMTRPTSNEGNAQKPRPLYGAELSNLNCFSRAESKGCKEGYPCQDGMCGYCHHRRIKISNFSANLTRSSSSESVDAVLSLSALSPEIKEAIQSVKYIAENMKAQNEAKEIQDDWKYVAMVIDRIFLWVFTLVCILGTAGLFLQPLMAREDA
Chain of α3β4 nAChR (P30926 22-498): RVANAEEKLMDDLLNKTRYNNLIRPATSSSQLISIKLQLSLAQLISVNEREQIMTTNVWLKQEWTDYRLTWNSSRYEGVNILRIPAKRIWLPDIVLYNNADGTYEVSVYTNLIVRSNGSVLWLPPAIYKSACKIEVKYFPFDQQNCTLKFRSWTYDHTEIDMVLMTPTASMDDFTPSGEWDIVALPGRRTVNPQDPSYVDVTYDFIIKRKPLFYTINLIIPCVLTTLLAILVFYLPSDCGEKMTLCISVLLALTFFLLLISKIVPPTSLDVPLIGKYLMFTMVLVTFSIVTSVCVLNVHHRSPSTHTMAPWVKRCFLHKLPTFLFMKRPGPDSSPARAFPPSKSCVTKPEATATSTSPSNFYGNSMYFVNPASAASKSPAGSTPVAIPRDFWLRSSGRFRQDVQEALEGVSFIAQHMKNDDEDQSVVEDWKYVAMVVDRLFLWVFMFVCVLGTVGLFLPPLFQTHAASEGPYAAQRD
Chain of α4β2 nAChR (P43681 29-627): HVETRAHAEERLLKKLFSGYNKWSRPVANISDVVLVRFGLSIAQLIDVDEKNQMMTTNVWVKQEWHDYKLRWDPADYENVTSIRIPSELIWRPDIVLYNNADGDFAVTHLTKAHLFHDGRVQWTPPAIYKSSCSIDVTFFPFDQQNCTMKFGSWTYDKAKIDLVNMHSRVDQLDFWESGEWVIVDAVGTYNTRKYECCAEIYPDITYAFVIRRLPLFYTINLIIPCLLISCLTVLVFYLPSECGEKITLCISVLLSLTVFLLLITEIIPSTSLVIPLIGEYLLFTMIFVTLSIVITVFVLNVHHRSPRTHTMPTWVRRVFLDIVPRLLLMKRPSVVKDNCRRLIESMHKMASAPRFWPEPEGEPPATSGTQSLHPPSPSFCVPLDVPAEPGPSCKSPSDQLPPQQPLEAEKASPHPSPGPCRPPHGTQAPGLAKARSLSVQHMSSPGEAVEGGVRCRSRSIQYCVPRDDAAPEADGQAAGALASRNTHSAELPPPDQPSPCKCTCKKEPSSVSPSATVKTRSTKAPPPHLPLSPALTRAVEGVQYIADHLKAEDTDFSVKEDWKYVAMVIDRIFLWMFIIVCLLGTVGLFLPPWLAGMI
Chain of α4β2 nAChR (P17787 26-502): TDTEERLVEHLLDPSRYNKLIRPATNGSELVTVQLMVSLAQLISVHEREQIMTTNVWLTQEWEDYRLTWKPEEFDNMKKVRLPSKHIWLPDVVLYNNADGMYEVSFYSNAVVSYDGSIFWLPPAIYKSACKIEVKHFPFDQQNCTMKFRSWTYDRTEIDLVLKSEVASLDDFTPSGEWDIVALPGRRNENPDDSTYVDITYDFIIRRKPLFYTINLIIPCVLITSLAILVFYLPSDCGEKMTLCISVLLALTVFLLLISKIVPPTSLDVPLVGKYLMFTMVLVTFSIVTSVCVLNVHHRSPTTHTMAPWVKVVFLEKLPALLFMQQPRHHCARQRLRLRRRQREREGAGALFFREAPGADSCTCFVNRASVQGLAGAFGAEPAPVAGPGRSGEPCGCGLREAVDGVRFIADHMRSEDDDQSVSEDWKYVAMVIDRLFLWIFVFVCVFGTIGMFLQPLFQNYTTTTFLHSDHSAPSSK

Molecule `c1cncc(C[C@@H]2[C@@H](Oc3cnc(-c4ccc5[nH]ccc5c4)cn3)C3CCN2CC3)c1` (racemic) [Compound 9, trans-5-[5-[2-(3-Pyridylmethyl)quinuclidin-3-yl]oxypyrazin-2-yl]-1H-indole] gave a Ki on human α7 nAChR of 0.24 µM.
Regarding `c1cncc(C[C@@H]2[C@@H](Oc3ccc(-c4ccc5[nH]ccc5c4)nn3)C3CCN2CC3)c1` (racemic) [Compound 11, trans-5-[6-[2-(3-Pyridylmethyl)quinuclidin-3-yl]oxypyridazin-3-yl]-1H-indole], the Ki was 0.0014 µM at human α7 nAChR and 0.073 µM on α4β2 nAChR.
For the molecule `c1cncc(C[C@@H]2[C@@H](Oc3nnc(-c4ccc5[nH]ccc5c4)s3)C3CCN2CC3)c1` (racemic) [Compound 16, trans-2-(1H-Indol-5-yl)-5-[2-(3-pyridylmethyl)quinuclidin-3-yl]oxy-1,3,4-thiadiazole], the Ki was 0.22 µM on α4β2 nAChR (Table 2, read-out: Ki α4β2) and 0.44 µM on α3β4 nAChR.
`c1ccc(-c2nnc(O[C@H]3C4CCN(CC4)[C@@H]3Cc3cccnc3)s2)cc1` (racemic) [Compound 20, trans-2-Phenyl-5-[2-(3-pyridylmethyl)quinuclidin-3-yl]oxy-1,3,4-thiadiazole]: the affinity on human α7 nAChR corresponds to a Ki of 0.32 µM.
`c1cncc(C[C@@H]2[C@H](Oc3ccc(-c4ccc5[nH]ccc5c4)nn3)C3CCN2CC3)c1` (relative stereo) [Compound 7, cis-5-[6-[2-(3-Pyridylmethyl)quinuclidin-3-yl]oxypyridazin-3-yl]-1H-indole]: at human α7 nAChR, the inhibitory constant (Ki) stood at 0.059 µM and the “nAChR subtype preference / selectivity” value is reported as “preferably binds to the α4β2 nAChR”. Also, the affinity on α3β4 nAChR, expressed as Ki, was 0.2 µM.
Turning to `c1cncc(C[C@@H]2[C@@H](Oc3cnc(-c4ccc5[nH]ccc5c4)cn3)C3CCN2CC3)c1` (relative stereo) [Compound 9, trans-5-[5-[2-(3-Pyridylmethyl)quinuclidin-3-yl]oxypyrazin-2-yl]-1H-indole], the Ki at α4β2 nAChR (Table 2, read-out: Ki α4β2) was determined as 0.23 µM; at α3β4 nAChR, 0.4 µM.
Consider `c1cncc(C[C@@H]2[C@@H](Oc3ccc4ccccc4n3)C3CCN2CC3)c1` (relative stereo) [Compound 18, trans-2-[2-(3-Pyridylmethyl)quinuclidin-3-yl]oxyquinoline], for which the Ki on human α7 nAChR amounted to 2.92 µM.
Still for that read-out and setting: under `c1ccc(-c2ccc(O[C@H]3C4CCN(CC4)[C@@H]3Cc3cccnc3)nn2)cc1` (relative stereo) [Compound 19, trans-3-(6-Phenylpyridazin-3-yl)oxy-2-(3-pyridylmethyl) quinuclidine] stands 0.1 µM; under `c1ccc(-c2nnc(O[C@H]3C4CCN(CC4)[C@@H]3Cc3cccnc3)s2)cc1` (relative stereo) [Compound 20, trans-2-Phenyl-5-[2-(3-pyridylmethyl)quinuclidin-3-yl]oxy-1,3,4-thiadiazole], 0.32 µM.
Regarding `c1cncc(C[C@@H]2[C@@H](Oc3ccc(-c4ccc5[nH]ccc5c4)nn3)C3CCN2CC3)c1` [2R,3S-11, (2R,3S)-5-[6-[2-(3-Pyridylmethyl)quinuclidin-3-yl]oxypyridazin-3-yl]-1H-indole], the inhibitory constant (Ki) was 0.034 µM at human α7 nAChR (Table 2, read-out: Ki α7); 0.73 µM at α4β2 nAChR (Table 2, read-out: Ki α4β2); 1.21 µM at α3β4 nAChR.
For `c1cncc(C[C@H]2[C@H](Oc3ccc(-c4ccc5[nH]ccc5c4)nn3)C3CCN2CC3)c1` [2S,3R-11, (2S,3R)-5-[6-[2-(3-Pyridylmethyl)quinuclidin-3-yl]oxypyridazin-3-yl]-1H-indole], the Ki at human α7 nAChR (Table 2, read-out: Ki α7) amounted to 0.001 µM; on α4β2 nAChR (Table 2, read-out: Ki α4β2), 0.077 µM; on α3β4 nAChR it was 0.78 µM. The “nAChR subtype preference / selectivity” value on human α7 nAChR is “optimal and selective interaction with α7 nAChR”.
As for `c1cncc(C[C@@H]2[C@@H](Oc3ccc(-c4ccc5[nH]ccc5c4)cn3)C3CCN2CC3)c1` [Compound 5, trans-5-[6-[2-(3-Pyridylmethyl)quinuclidin-3-yl]oxy-3-pyridyl]-1H-indole], on human α7 nAChR, the Ki amounted to 0.058 µM.
Still for that read-out and setting: under `c1cncc(C[C@@H]2[C@@H](Oc3ccc(-c4ccc5[nH]ccc5c4)nn3)C3CCN2CC3)c1` [Compound 11, trans-5-[6-[2-(3-Pyridylmethyl)quinuclidin-3-yl]oxypyridazin-3-yl]-1H-indole] stands 0.001 µM.
With `Nc1nc2ccc(-c3ccc(OC4C5CCN(CC5)C4Cc4cccnc4)nn3)cc2s1` (stereo not drawn) [Compound 12, trans-6-[6-[2-(3-Pyridylmethyl)quinuclidin-3-yl]oxypyridazin-3-yl]-1,3-benzothiazol-2-amine], the Ki turned out to be 0.019 µM at human α7 nAChR (setting [3]); 0.0188 µM at human α7 nAChR (Table 2, read-out: Ki α7); 0.05 µM at α4β2 nAChR (Table 2, read-out: Ki α4β2); 1.08 µM on α3β4 nAChR.
Regarding `c1cncc(C[C@@H]2[C@@H](Oc3nnc(-c4ccc5[nH]ccc5c4)s3)C3CCN2CC3)c1` [Compound 16, trans-2-(1H-Indol-5-yl)-5-[2-(3-pyridylmethyl)quinuclidin-3-yl]oxy-1,3,4-thiadiazole], the Ki on human α7 nAChR (setting [3]) is 0.011 µM. Also, the “citric acid-induced cough counts compared with air control” value in assay [1] (dry powder insufflated, 1 mg/kg, p=0.0004) was “significantly reduced”; in assay [1] (dry powder insufflated, 2 mg/kg, p=0.0042), “significantly reduced”; in assay [1] (nebulised, 0.4 mg/kg, 58 min exposure, p=0.0023) it was “significantly reduced”; in assay [1] (orally administered, 9.5 mg/kg, p<0.05) it was “significantly reduced”. Moreover, the “cough frequency compared to negative control (saline)” value in assay [1] (prophylactic intraperitoneal treatment at 1, 3 and 9.5 mg/kg, FIG. 8) is on record as “suppression of cough frequency”. Moreover, the “number of coughs (citric acid-induced cough counts)” value in assay [2] (i.p. 1 mg/kg, p<0.0001 vs saline control (17 coughs)) is on record as 5; in assay [2] (i.p. 3 mg/kg, p<0.001 vs saline control (17 coughs)) it was 5; in assay [2] (i.p. 9.5 mg/kg, p<0.01 vs saline control (17 coughs)), 7. Further, the cough incubation period was 548 s in assay [2] (i.p. 1 mg/kg, p<0.001 vs saline control (206 sec)); 455 s in assay [2] (i.p. 3 mg/kg, p<0.01 vs saline control (206 sec)); 489 s in assay [2] (i.p. 9.5 mg/kg, p<0.05 vs saline control (206 sec)).
